The record followed here is US12391686B2, “Compounds and uses thereof” (Foghorn Therapeutics Inc., priority 2019, dated 2025).

The target of the test is T1, Nanoluciferase-BRD9 fusion protein (3×FLAG-NLuc-BRD9) in SYO-1 cells (Homo sapiens, UniProt Q9H8M2).
T1 construct: expressed in transfected cells; host or cells: SYO-1
T1 sequence (Q9H8M2 1-597): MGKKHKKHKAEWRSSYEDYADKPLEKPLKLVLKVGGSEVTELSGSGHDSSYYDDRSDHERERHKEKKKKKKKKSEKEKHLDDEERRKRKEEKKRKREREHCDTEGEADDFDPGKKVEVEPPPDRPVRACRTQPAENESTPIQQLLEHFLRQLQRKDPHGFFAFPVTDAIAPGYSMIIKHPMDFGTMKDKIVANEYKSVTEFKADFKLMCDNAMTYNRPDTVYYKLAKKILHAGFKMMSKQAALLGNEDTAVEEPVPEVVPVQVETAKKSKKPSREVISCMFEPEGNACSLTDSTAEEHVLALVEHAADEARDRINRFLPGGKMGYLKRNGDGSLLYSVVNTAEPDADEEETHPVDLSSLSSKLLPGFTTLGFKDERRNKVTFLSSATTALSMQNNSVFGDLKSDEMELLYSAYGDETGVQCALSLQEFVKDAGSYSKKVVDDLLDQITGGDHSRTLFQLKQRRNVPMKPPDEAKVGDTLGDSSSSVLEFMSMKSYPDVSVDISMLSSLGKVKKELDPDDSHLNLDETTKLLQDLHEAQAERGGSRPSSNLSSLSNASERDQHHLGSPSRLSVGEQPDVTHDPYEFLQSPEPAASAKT
Description: SYO1 BRD9 NanoLuc Degradation Assay. Format: cell-based. The note with it: SYO-1 cells expressing 3×FLAG-NLuc-BRD9, 6 hours incubation, 1 μM top dose, read-out: SYO1 BRD9-NanoLuc degradation IC50. Put shortly:
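NanoLuc signal, read by Nano-Glo luminescence after 6 h compound exposure, gives % inhibition against DMSO-treated cells (high control) and cells given 1 μM of a standard BRD9 degrader (low control). Test compounds ran as 10-point 3-fold series, top 1 μM final, in duplicate on SYO-1 cells stably expressing 3×FLAG-NLuc-BRD9.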

Read-outs that look alike come from different tables or passages of the source. A value given as a limit tells only on which side of the number the result lay.

Regarding `COc1cc(-c2cn(C)c(=O)c3cnc(N(C)C)cc23)cc(OC)c1CN(C)CC12CC(C(=O)NCCCCCNc3ccc4c(c3)C(=O)N(C3CCC(=O)NC3=O)C4=O)(C1)C2` (stereo not drawn) [Compound D39], the DC50 (Table 6B) is less than 10 nM.
`CNc1cc2c(=O)n(C)cc(-c3cc(OC)c(CN(C)CC45CC(C(=O)NCCCCCNc6cccc7c6C(=O)N(C6CCC(=O)NC6=O)C7=O)(C4)C5)c(OC)c3)c2cn1` (stereo not drawn) [Compound D172]: the DC50 (Table 6B) was 10 to 100 nM.
As to `COc1cc(-c2cn(C)c(=O)c3cnc(N4CCC4)cc23)cc(OC)c1CN1CCC(CN2CCC3(CC2)CN(c2ccc4c(c2)CN(C2CCC(=O)NC2=O)C4=O)C3)CC1` (stereo not drawn) [Compound D218], the DC50 (Table 6C) is less than 10 nM.
The same measure, in the same setting: the result for `COc1cc(-c2cn(C)c(=O)c3cnc(C4CC4)cc23)cc(OC)c1CN1CCN(CCC2CCN(c3ccc4c(c3)C(=O)N(C3CCC(=O)NC3=O)C4=O)CC2)CC1` (stereo not drawn) [Compound D299] reads less than 10 nM.
For the compound `COc1cc(-c2cn(C)c(=O)c3cnc(N4CCC4)cc23)cc(OC)c1CN1CCC2(CC1)CN(c1ccc3c(c1)C(=O)N(C1CCC(=O)NC1=O)C3)C2` (stereo not drawn) [Compound D142], where the note is “Table 6B”, the DC50 was less than 10 nM.
Take `[2H]C([2H])([2H])n1cc(-c2cc(OC)c(CN3CC(CN4CCC5(CC4)CN(c4ccc6c(c4)C(=O)N(C4CCC(=O)NC4=O)C6=O)C5)C3)c(OC)c2)c2cc(C3CC3)ncc2c1=O` (stereo not drawn) [Compound D306]: the DC50 (Table 6C) is less than 10 nM.
Still for that read-out and setting: the result for `CCOC1CC1c1cc2c(-c3cc(OC)c(CN4CCN(CCC5CCN(c6ccc7c(c6)C(=O)N(C6CCC(=O)NC6=O)C7)CC5)CC4)c(OC)c3)cn(C)c(=O)c2cn1` (stereo not drawn) [Compound D203] reads less than 10 nM.
On to `CCc1cc(-c2cn(C)c(=O)c3cnc(N(C)C)cc23)cc(Cl)c1CN1CCC(CN2CCC3(CC2)CC(Oc2ccc4c(c2)C(=O)N(C2CCC(=O)NC2=O)C4=O)C3)CC1` (stereo not drawn) [Compound D140], for which the DC50 (Table 6B) was less than 10 nM.
`COc1cc(-c2cn(C)c(=O)c3cnc(C4CC4)cc23)cc(OC)c1CN1CCC(C(N2CCC3(CC2)CC(Oc2ccc4c(c2)C(=O)N(C2CCC(=O)NC2=O)C4=O)C3)C(F)(F)F)CC1` (stereo not drawn) [Compound D195]: the DC50 (Table 6C) was less than 10 nM.
Consider `C=CCCn1cc(-c2cc(OC)c(CN3CCN(CCC4CCN(c5ccc6c(c5)C(=O)N(C5CCC(=O)NC5=O)C6=O)CC4)CC3)c(OC)c2)c2cc(N(C)C)ncc2c1=O` (stereo not drawn) [Compound D135], for which, for the setting “Table 6B”, the DC50 is less than 10 nM.
Same read-out and setting: the result for `CN(C)c1cc2c(-c3cc(Cl)c(CN4CCC(CN5CCC6(CC5)CC(Oc5ccc7c(c5)C(=O)N(C5CCC(=O)NC5=O)C7=O)C6)CC4)c(Cl)c3)cn(C)c(=O)c2cn1` (stereo not drawn) [Compound D119] reads 10 to 100 nM.
Take `COc1cc(-c2cn(C)c(=O)c3cnc(N4CC(F)(F)C4)cc23)cc(OC)c1CN1CCN(CCC2CCN(c3ccc4c(c3)CN(C3CCC(=O)NC3=O)C4=O)CC2)CC1` (stereo not drawn) [Compound D248]: the DC50 (Table 6C) was less than 10 nM.
As to `COc1cc(-c2cn(C)c(=O)c3cnc(C4(C)CC4)cc23)cc(OC)c1CN1CCC(CCN2CCN(c3ccc4c(c3)CN(C3CCC(=O)NC3=O)C4=O)CC2)CC1` (stereo not drawn) [Compound D238], the DC50 (Table 6C) was less than 10 nM.
On the same count and under the same terms, as for `CN(C)c1cc2c(-c3ccc(N(C)C4CCN(c5ccc6c(c5)C(=O)N(C5CCC(=O)NC5=O)C6)CC4)cc3)cn(C)c(=O)c2cn1` (stereo not drawn) [Compound D262], the figure is less than 10 nM; as for `COc1cc(-c2cn(C)c(=O)c3cnc(N4CC5(CC5)C4)cc23)cc(OC)c1CN1CC(CN2CCC3(CC2)CN(c2ccc4c(c2)C(=O)N(C2CCC(=O)NC2=O)C4)C3)C1` (stereo not drawn) [Compound D201], less than 10 nM.
For `COc1cc(-c2cn(C)c(=O)c3cnc(N(C)C)cc23)cc(OC)c1CN1CCC(C(N2CCC3(CC2)CC(Oc2ccc4c(c2)C(=O)N(C2CCC(=O)NC2=O)C4=O)C3)C(F)(F)F)CC1` (stereo not drawn) [Compound D99], the DC50 (Table 6B) is less than 10 nM.
In the case of `COc1cc(-c2cn(C)c(=O)c3cnc(N(C)C)cc23)cc(OC)c1CN1CCC2CN(c3ccc4c(c3)C(=O)N(C3CCC(=O)NC3=O)C4=O)C21` (stereo not drawn) [Compound D92], the DC50 (Table 6B) is less than 10 nM.
Take `COc1cc(-c2cn(C)c(=O)c3cnc(N(C)C)cc23)cc(OC)c1CC1CCN(c2ccc3c(c2)C(=O)N(C2CCC(=O)NC2=O)C3)CC1` (stereo not drawn) [Compound D280]: the DC50 (Table 6C) was less than 10 nM.
Regarding `COc1cc(-c2cn(C)c(=O)c3cnc(N(C)C)cc23)c(OC)cc1CN1CCN(CCC2CCN(c3ccc4c(c3)C(=O)N(C3CCC(=O)NC3=O)C4=O)CC2)CC1` (stereo not drawn) [Compound D145], the DC50 (Table 6B) was less than 10 nM.
Turning to `COc1cc(-c2cn(C)c(=O)c3cnc(N4CC(F)C4)cc23)cc(OC)c1CN1CC(CN2CCC3(CC2)CN(c2ccc4c(c2)C(=O)N(C2CCC(=O)NC2=O)C4)C3)C1` (stereo not drawn) [Compound D200], the DC50 (Table 6C) is less than 10 nM.
Still for that read-out and setting: as for `COc1cc2c(-c3cc(OC)c(CN4[C@H](C)CN(c5ccc6c(c5)C(=O)N(C5CCC(=O)NC5=O)C6)C[C@H]4C)c(OC)c3)cn(C)c(=O)c2cn1` (stereo partly drawn) [Compound D281], the figure is less than 10 nM.
Turning to `COc1cc(-c2cn(C)c(=O)c3cnc(N4CCC4)cc23)cc(OC)c1CN1CCC(CN2CCC3(CC2)CN(c2ccc4c(c2)C(=O)N(C2CCC(=O)NC2=O)C4=O)C3)CC1` (stereo not drawn) [Compound D136], the DC50 (Table 6B) is less than 10 nM.
In the case of `COc1cc(-c2cn(C)c(=O)c3cnc(N(C)C)cc23)cc(OC)c1CN1CC2(C1)CN(C(C)(C)C#Cc1ccc3c(c1)C(=O)N(C1CCC(=O)NC1=O)C3=O)C2` (stereo not drawn) [Compound D72], the DC50 (Table 6B) is less than 10 nM.
Regarding `COc1cc(-c2cn(C)c(=O)c3cnc(N(C)C)cc23)cc(OC)c1CN1CC(N(C)c2ccc3c(c2)C(=O)N(C2CCC(=O)NC2=O)C3=O)C1` (stereo not drawn) [Compound D268], the DC50 (Table 6C) is less than 10 nM.
As to `COc1cc(-c2cn(C)c(=O)c3cnc(N(C)C)cc23)cc(OC)c1CN1CCC(C(=O)N2CCC3(CC2)CC(Oc2cc4c(cc2F)C(=O)N(C2CCC(=O)NC2=O)C4=O)C3)CC1` (stereo not drawn) [Compound D118], where the note is “Table 6B”, the DC50 was less than 10 nM.
On the same count and under the same terms, the result for `COc1cc(-c2cn(C)c(=O)c3cnc(N(C)C)cc23)cc(OC)c1CN1CCC(CCN2Cc3cc4c(cc3C2)C(=O)N(C2CCC(=O)NC2=O)C4=O)CC1` (stereo not drawn) [Compound D59] reads less than 10 nM.
`COc1cc(-c2cn(C)c(=O)c3cnc(N(C)C)cc23)cc(OC)c1CN1CC2(CCC(N3Cc4cc5c(cc4C3)C(=O)N(C3CCC(=O)NC3=O)C5=O)CC2)C1` (stereo not drawn) [Compound D64]: the DC50 (Table 6B) lay within 100 to 1000 nM.
`COc1cc(-c2cn(C)c(=O)c3cnc(N4CCC4)nc23)cc(OC)c1CN1CCC(CN2CCC3(CC2)CC(Oc2ccc4c(c2)C(=O)N(C2CCC(=O)NC2=O)C4)C3)CC1` (stereo not drawn) [Compound D286]: for the setting “Table 6C”, the DC50 is less than 10 nM.
As to `COc1cc(-c2cn(C)c(=O)c3cnc(N(C)C)cc23)cc(Cl)c1CN1CCC(C(=O)N2CCC3(CC2)CC(Oc2ccc4c(c2)C(=O)N(C2CCC(=O)NC2=O)C4=O)C3)CC1` (stereo not drawn) [Compound D102], where the note is “Table 6B”, the DC50 was less than 10 nM.
Still for that read-out and setting: as for `COc1cc(-c2cn(C)c(=O)c3cnc(N(C)C)cc23)c2c(c1)N(CCCCCCCCOc1cccc3c1C(=O)N(C1CCC(=O)NC1=O)C3=O)CC2` (stereo not drawn) [Compound D47], the figure is 10 to 100 nM.
